Tested on: MDA-MB-231 complex spheroid viability
Assay: Anticancer human tumor MDA-MB-231/ATCC cell line growth inhibition;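 further: drug exposure lasted 7 days starting on day 3 of spheroid growth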
Details: for IC50: curve of first compound; for viability, T/C: stronger effect = lower value
Method in brief: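 Drug combinations with the LSD1 inhibitor iadademstat tested on tumor cells co-cultured as spheroids with endothelial cells and mesenchymal stem cells. Concentrations descended in half-log increments from clinical Cmax or 10 microM.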

[1] = second compound 0.1 µM, first compound 0.0316 µM
[2] = second compound 0.1 µM, first compound 0.1 µM
[3] = second compound 0.1 µM, first compound 0.316 µM
[4] = second compound 0.1 µM, first compound 1 µM
[5] = second compound 0.1 µM, first compound 3.16 µM
[6] = second compound 0.1 µM, first compound 10 µM
[7] = second compound 0.316 µM, first compound 0.0316 µM
[8] = second compound 0.316 µM, first compound 0.1 µM
[9] = second compound 0.316 µM, first compound 0.316 µM
[10] = second compound 0.316 µM, first compound 1 µM
[11] = second compound 0.316 µM, first compound 3.16 µM
[12] = second compound 0.316 µM, first compound 10 µM
[13] = second compound 1 µM, first compound 0.0316 µM
[14] = second compound 1 µM, first compound 0.1 µM
[15] = second compound 1 µM, first compound 0.316 µM
[16] = second compound 1 µM, first compound 1 µM
[17] = second compound 1 µM, first compound 3.16 µM
[18] = second compound 1 µM, first compound 10 µM
[19] = second compound 3.16 µM, first compound 0.0316 µM
[20] = second compound 3.16 µM, first compound 0.1 µM
[21] = second compound 3.16 µM, first compound 0.316 µM
[22] = second compound 3.16 µM, first compound 1 µM
[23] = second compound 3.16 µM, first compound 3.16 µM
[24] = second compound 3.16 µM, first compound 10 µM
[25] = second compound 10 µM, first compound 0.0316 µM
[26] = second compound 10 µM, first compound 0.1 µM
[27] = second compound 10 µM, first compound 0.316 µM
[28] = second compound 10 µM, first compound 1 µM
[29] = second compound 10 µM, first compound 3.16 µM
[30] = second compound 10 µM, first compound 10 µM

Compound | IC50 (second compound 0.1 µM) | IC50 (second compound 0.316 µM) | IC50 (second compound 1 µM) | IC50 (second compound 3.16 µM) | IC50 (second compound 10 µM) | viability, T/C [1] | viability, T/C [2] | viability, T/C [3] | viability, T/C [4] | viability, T/C [7] | viability, T/C [8] | viability, T/C [9] | viability, T/C [10] | viability, T/C [13] | viability, T/C [14] | viability, T/C [15] | viability, T/C [16] | viability, T/C [19] | viability, T/C [20] | viability, T/C [21] | further results
CC(C)c1c(-c2ccccc2)nc2c(C#N)c[nH]n2c1=O + NC1CC1c1ccc(-c2cccc(O)c2)cc1 | > 10000 nM | > 10000 nM | > 10000 nM | > 10000 nM | < 31.6 nM | 82.9% | 84.7% | 82% | 85.4% | 71% | 69.8% | 70.4% | 63.1% | 69.4% | 69.5% | 70.7% | 63.6% | 68.5% | 65.1% | 71% | viability, T/C [5]: 83%; viability, T/C [6]: 82.4%; viability, T/C [11]: 76.2%; viability, T/C [12]: 62%; viability, T/C [17]: 58.3%; viability, T/C [18]: 52.9%; viability, T/C [22]: 68%; viability, T/C [23]: 62.7%; viability, T/C [24]: 56.5%; viability, T/C [25]: 44.3%; viability, T/C [26]: 42.9%; viability, T/C [27]: 50.8%; viability, T/C [28]: 51.5%; viability, T/C [29]: 44.2%; viability, T/C [30]: 45.2%
CC1COCCN1c1cc(-c2ccnn2C)c2ccnc(-c3ccn[nH]3)c2n1 (stereo not given) + NC1CC1c1ccc(-c2cccc(O)c2)cc1 | < 3.16 nM | < 3.16 nM | < 3.16 nM | < 3.16 nM | < 3.16 nM | 20.5% | 16.4% | 15.8% | 21.4% | 20.7% | 16.6% | 15.8% | 22.5% | 20.9% | 15.3% | 14.3% | 24% | 19.7% | 16.9% | 15.2% | viability, T/C (second compound 0.1 µM, first compound 0.00316 µM): 38.1%; viability, T/C (second compound 0.1 µM, first compound 0.01 µM): 32%; viability, T/C (second compound 0.316 µM, first compound 0.00316 µM): 32.1%; viability, T/C (second compound 0.316 µM, first compound 0.01 µM): 28.7%; viability, T/C (second compound 1 µM, first compound 0.00316 µM): 33.5%; viability, T/C (second compound 1 µM, first compound 0.01 µM): 30.8%; viability, T/C (second compound 3.16 µM, first compound 0.00316 µM): 33.4%; viability, T/C (second compound 3.16 µM, first compound 0.01 µM): 27.9%; viability, T/C [22]: 22%; viability, T/C (second compound 10 µM, first compound 0.00316 µM): 25.7%; viability, T/C (second compound 10 µM, first compound 0.01 µM): 20.7%; viability, T/C [25]: 18.1%; viability, T/C [26]: 16.2%; viability, T/C [27]: 15%; viability, T/C [28]: 20.5%
CC1COCCN1c1cc(C2(S(C)(=N)=O)CC2)nc(-c2ccnc3[nH]ccc23)n1 (stereo not given) + NC1CC1c1ccc(-c2cccc(O)c2)cc1 | 952 nM | 749 nM | 537 nM | 832 nM | 490 nM | 90.7% | 90.3% | 87% | 47.6% | 71.7% | 74.8% | 74.5% | 42% | 53.6% | 68.1% | 57.4% | 40.4% | 72.4% | 80.1% | 72.7% | viability, T/C [5]: 31.5%; viability, T/C [6]: 22.4%; viability, T/C [11]: 23.3%; viability, T/C [12]: 20.3%; viability, T/C [17]: 23.9%; viability, T/C [18]: 20.9%; viability, T/C [22]: 45.6%; viability, T/C [23]: 23%; viability, T/C [24]: 21.1%; viability, T/C [25]: 57.1%; viability, T/C [26]: 59.7%; viability, T/C [27]: 56.4%; viability, T/C [28]: 40.1%; viability, T/C [29]: 23.6%; viability, T/C [30]: 18.7%

From PubChem BioAssay AID1918953 (Molecular Pharmacology Branch, DTP, NCI, 2023)
